Measured values as given in patent US20170273985A1, “TRICYCLIC DERIVATIVE” (Sunovion Pharmaceuticals Inc., priority 2014, published 2017).

Legend:
Type in all cases: biochemical
[1] = target: PDE1B (Homo sapiens, UniProt Q01064); assay: In vitro HTRF PDE1 inhibition assay (PDE1B)
Outline: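 PDE1A3, 1B or 1C with calmodulin hydrolysed 100 nM cGMP in Tris buffer pH 7.4 (1 mM CaCl2, 10 mM MgCl2, 0.1% BSA, 1% DMSO) for 45 min at 37 °C. Remaining cGMP was measured by HTRF competition (d2-cGMP, anti-cGMP cryptate; 665/615 nm). IC50 is reported in bins: <1, 1-10 and 10-100 μM.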

[2] = target: PDE1C (Homo sapiens, UniProt Q14123); assay: In vitro HTRF PDE1 inhibition assay (PDE1C)
Excerpt: (§1) An exemplary procedure for the in vitro Homogenous Time Resolved Fluorescence assay, which can be used to determine the inhibitory action of compounds of the invention toward PDE1 or its isoforms, follows. The HTRF PDE1 assay utilized the HTRF (Homogenous Time Resolved Fluorescence) technology, which is based on the competition between unlabeled cyclic nucleotide and cyclic nucleotide labeled with XL665 for the binding to cyclic nucleotide-specific antibody labeled with cryptate. The HTRF signal is thus inversely proportional to the concentration of cyclic nucleotide being measured. Since phosphodiesterases break down cyclic nucleotides the HTRF signal was used to determine PDE activity. The Cisbio cGMP HTRF assay kit (Cat no: 62GM2PEC) was utilized. Cyclic GMP was diluted to 200 nM in HTRF assay buffer (1 mM CaCl2, 10 mM MgCl2, 10 mM Tris-HCl, 0.1% BSA, pH 7.4). 10 μl of compound or DMSO was diluted in 200 nM cyclic GMP solution and added to wells of a 96 well white plate to give 100 nM cyclic GMP in 1% DMSO final concentration. PDE (1A3, 1B or IC) was diluted to 2× working concentration in HTRF assay buffer with 2 μg/ml calmodulin, and 10 μl was added to initiate the reaction. The plate was then incubated for 45 minutes at 37° C. d2-Labelled cyclic GMP and anti-cGMP cryptate were diluted in 50 mM phosphate buffer, 0.8 M KF, 1% Triton X100, 0.2% BSA, pH 7.0. Following incubation 10 μl d2-cGMP, then 10 μl anti cGMP cryptate were added to each well and the plate was incubated for 45 minutes at room temperature. The plate was then read on Perkin Elmer Victor at 2 different FRET readings ex/emm 340 nm/665 nm and 340 nm/615 nm. Compounds having an IC50 of <1 μM, are denoted as +++. Compounds having an IC50 of 1−10 μM, are denoted as ++. Compounds having an IC50 of 10-100 μM, are denoted as +.

[3] = target: PDE1A3 (Homo sapiens, UniProt P54750); assay: In vitro HTRF PDE1 inhibition assay (PDE1A3)
Excerpt: as §1

IC50 ([1]; Table 22)	IC50 ([2]; Table 24)	IC50 ([3]; Table 23)	IC50 ([1]; Table 25)	IC50 ([2]; Table 27)	IC50 ([3]; Table 26)	Structure (SMILES)
< 1000 nM	< 1000 nM	< 1000 nM	–	–	–	CC1CN(CC2CCOCC2)c2nn3c(C(C)C)ncc3c(=O)n2C1 (stereo not drawn) [Example 64]
< 1000 nM	1000 to 10000 nM	< 1000 nM	–	–	–	CN1c2nn3c(C4CCOCC4)ncc3c(=O)n2CCC1c1ccc(Cl)cc1 (stereo not drawn) [Example 69]
< 1000 nM	1000 to 10000 nM	< 1000 nM	–	–	–	CCN1c2nn3c(C4CCOCC4)ncc3c(=O)n2CC[C@@H]1c1ccc(Cl)cc1 [Example 70]
< 1000 nM	< 1000 nM	< 1000 nM	–	–	–	CC(C)n1ncc2c(=O)n3c(nc21)N(Cc1ccc(-c2ccccn2)cc1)CC3 [Example 75]
< 1000 nM	1000 to 10000 nM	< 1000 nM	–	–	–	CC(C)n1ncc2c(=O)n3c(nc21)N(CC1CCOCC1)CCC3 [Example 78]
< 1000 nM	< 1000 nM	< 1000 nM	–	–	–	CC(C)n1ncc2c(=O)n3c(nc21)N(Cc1ccc(C#N)cc1)CCC3 [Example 79]
< 1000 nM	1000 to 10000 nM	< 1000 nM	–	–	–	CC(C)n1ncc2c(=O)n3c(nc21)N(C)C(c1ccc(Cl)cc1)CC3 (stereo not drawn) [Example 81]
< 1000 nM	< 1000 nM	< 1000 nM	–	–	–	CC(C)c1ncc2c(=O)n3c(nn12)N(CCCCCCO)CCC3 [Example 106]
< 1000 nM	< 1000 nM	< 1000 nM	–	–	–	CC(C)c1ncc2c(=O)n3c(nn12)N(CCCc1ccccn1)CCC3 [Example 120, 9-Isopropyl-1-[3-(2-pyridinyl)propyl]-1,2,3,4-tetrahydro-6H-imidazo[5,1-f]pyrimido[2,1-c][1,2,4]triazin-6-one]
< 1000 nM	1000 to 10000 nM	1000 to 10000 nM	–	–	–	O=c1c2cnc(C3CCCC3)n2nc2n1CCCC2 [Example 137]
–	–	–	< 1000 nM	< 1000 nM	< 1000 nM	O=c1c2cnc(C3CCOCC3)n2nc2n1CCN2CC1CCCCC1 [Example 153]
–	–	–	< 1000 nM	< 1000 nM	< 1000 nM	O=c1c2cnc(C3CCOCC3)n2nc2n1CCN2Cc1ccc(F)cc1 [Example 154]
–	–	–	< 1000 nM	< 1000 nM	< 1000 nM	O=c1c2cnc(C3CCOCC3)n2nc2n1CCN2Cc1cccc(F)c1 [Example 155]
–	–	–	< 1000 nM	< 1000 nM	< 1000 nM	O=c1c2cnc(C3CCOCC3)n2nc2n1CCN2Cc1ccccc1F [Example 156]
–	–	–	< 1000 nM	< 1000 nM	< 1000 nM	O=c1c2cnc(C3CCOCC3)n2nc2n1CCN2CC1(C(F)(F)F)CC1 [Example 159]
–	–	–	< 1000 nM	< 1000 nM	< 1000 nM	O=c1c2cnc(C3CCOCC3)n2nc2n1CCN2CCC1(C(F)(F)F)CC1 [Example 160]
–	–	–	< 1000 nM	< 1000 nM	< 1000 nM	O=c1c2cnc(C3CCOCC3)n2nc2n1CCN2CC1CCC(F)(F)CC1 [Example 171]
–	–	–	< 1000 nM	< 1000 nM	< 1000 nM	CC(C)CCN1CCn2c1nn1c(C3CCOCC3)ncc1c2=O [Example 172]
–	–	–	< 1000 nM	< 1000 nM	< 1000 nM	O=c1c2cnc(C3CCOCC3)n2nc2n1CCCN2CC1(C(F)(F)F)CC1 [Example 187]
–	–	–	< 1000 nM	< 1000 nM	< 1000 nM	O=c1c2cnc(C3CCOCC3)n2nc2n1CCCN2CC1CCC(F)(F)CC1 [Example 190]
–	–	–	< 1000 nM	< 1000 nM	< 1000 nM	CO[C@H]1CC[C@H](CN2CCCn3c2nn2c(C4CCOCC4)ncc2c3=O)CC1 [Example 191]
–	–	–	< 1000 nM	< 1000 nM	< 1000 nM	CCO[C@H]1CC[C@H](CN2CCCn3c2nn2c(C4CCOCC4)ncc2c3=O)CC1 [Example 193]
–	–	–	< 1000 nM	< 1000 nM	< 1000 nM	CC(C)c1ncc2c(=O)n3c(nn12)N(CC1CCOCC1)CC1(CC1)C3 [Example 200]
–	–	–	< 1000 nM	< 1000 nM	< 1000 nM	CC(C)c1ncc2c(=O)n3c(nn12)N(CC1CCOCC1)C[C@@H](C)C3 [Example 232]
–	–	–	< 1000 nM	< 1000 nM	< 1000 nM	CC(C)c1ncc2c(=O)n3c(nn12)N(CC1CCOCC1)C[C@H](C)C3 [Example 233]
